Data set [1] in a line: Distribution between mouse plasma and brain (brain penetration, ip). Format: in vivo. As to the method:
For distribution of compounds between mouse plasma and brain, mice (in groups of 3) were injected with test compounds (5 mg/kg ip) and sacrificed at the indicated times for collection of plasma and brain. Compound was dissolved in 0.4 mL of dosing solution (7% Tween 80, 3% ethanol, 5% DMSO, 0.9% saline) for ip injections. The brains were weighed and immediately frozen, then later homogenized in acetonitrile using a Dounce homogenizer. Prior to animal studies, recovery of test compound was carried out by adding a known amount to a mouse brain in the test extraction solvent and performing the homogenization. Compound recovery was determined by liquid chromatography/tandem mass spectrometry analysis relative to a standard compound amount. Blood was taken from the same mice in heparinized capillary tubes (Fisherbrand) for determination of compound concentration in plasma. The concentration of compound in the brain was obtained by dividing the moles of compound in the brain by the brain volume (obtained from the brain weight assuming 1 g is 1 mL) and correcting for the brain vasculature volume of 2.5% by weight.
Brain penetration studies (Table 14) were initially performed upon compounds 1, 2, and 3, but were expanded to include other compounds in order to explore the SAR of brain penetration. Groups of three mice were given single 5 mg/kg ip doses of the test compounds and were sacrificed 1 h post-dose.

Data set [2] has as its system T. b. brucei. The experiment in a line: In vitro antitrypanosomal activity against T. brucei (growth inhibition). Format: cell-based, Trypanosoma brucei. Here is the method: Primary hits from the screen were further characterized using a dose-response assay format to determine the EC50. In parallel, the cytotoxicities of these compounds were determined against a proliferating human hepatoma cell line (Huh7). […] SI—CC50/EC50). The final set of confirmed T. brucei hits consisted of 1035 inhibitors. […] In vitro antitrypanosomal activities against T. b. rhodesiense (STIB9000) and cytotoxicities against L6 rat myoblast cells were measured following established protocols (Orhan et al., Mar. Drugs 8:47 (2010). […] All wells including negative controls contained a final of 0.4% DMSO. After incubation of the plates at 37° C. for 48 h, the parasite density was determined using the CellTiter-Glo reagent (Promega), a firefly luciferase assay system that measures the amount of cellular ATP present in plate wells.

Data set [3] deals with Trypanosoma cruzi. The experiment in a line: Efficacy against T. cruzi in vitro. Format: cell-based. Conditions: Trypanosoma cruzi; Table 16; read-out: T. Cruzi EC50.
[4] abbreviates: Table 14, mice, single ip dose 5 mg/kg, one hour post-dose, ± SEM of 3 mice (compound 3: 6 mice).
[5] abbreviates: Trypanosoma brucei, Table 9, read-out: T. brucei EC50.
The mark [6] stands for this setting: Trypanosoma brucei, Table 9, read-out: T. brucei EC90.
Setting [7] is: Trypanosoma brucei, Table 16, read-out: T. b. brucei EC50.
The mark [8] stands for this setting: Trypanosoma brucei, Table 17, read-out: T. b. brucei EC50.
The mark [9] stands for this setting: Trypanosoma brucei, Table 17, read-out: T. b. brucei EC90.

Where a name gives a salt, the structure may show the parent alone. Read-outs that look alike come from different tables or passages of the source.

The values that follow come from patent publication US10399966B2, “Compounds for treatment of trypanosomes and neurological pathogens and uses thereof” (The University of North Carolina at Chapel Hill, priority 2016, dated 2019).

In the case of `O=C(Nc1ccc2oc(-c3ccccc3)nc2c1)N1CCCC1` [Compound 8, 2-Phenyl-5-N-pyrrolidylamidobenzoxazole], the Brain/plasma ratio in data set [1] (Table 14, mice, single ip dose 5 mg/kg, one hour post-dose) was determined as 1.58 ± 0.484. Besides, the “[compound]Brain” value in data set [1] (setting [4]) stood at 0.397 ± 0.077 µM. In addition, the “[compound]Plasma” value in data set [1] (setting [4]) was 0.270 ± 0.036 µM. Also, the Kp at 1 h in data set [1] (mouse, brain and plasma, intraperitoneal, 5 mg/kg, Table 7, groups of 3 mice, read-out: Average brain/plasma ratio) was 1.58 ± 0.839. The concentration at 1 h in data set [1] (mouse, brain, intraperitoneal, 5 mg/kg, Table 7, groups of 3 mice, read-out: Average [compound] brain) was 397 ± 130 nM; in data set [1] (mouse, plasma, intraperitoneal, 5 mg/kg, Table 7, groups of 3 mice, read-out: Average [compound] plasma), 270 ± 62 nM. For the same molecule, the concentration for a half-maximal effect (EC50) in data set [2] (Trypanosoma brucei, Table 7, read-out: T. brucei EC50) worked out at 5250 nM; in data set [2] (setting [5]), 5250 nM. Also, in data set [2] (setting [6]), the EC90 is above 10000 nM.
`O=C(Nc1ccc2[nH]c(-c3ccccc3)nc2c1)c1ccccc1` [Compound 14, 5-Benzamido-2-phenylbenzimidazole hydrochloride]: the half-maximal effective concentration (EC50) in data set [2] (Trypanosoma brucei, read-out: T. brucei EC50) is above 10000 nM. Further, the EC90 in data set [2] (Trypanosoma brucei, read-out: T. brucei EC90) is above 10000 nM.
Consider `O=C(Nc1ccc2sc(-c3ccccc3)nc2c1)c1ccsc1` [Compound 19, 2-Phenyl-5-(3-thienylamido)benzothiazole], for which the EC50 in data set [2] (setting [5]) was 1570 nM. Also, the EC90 in data set [2] (setting [6]) turned out to be 2490 nM.
Consider `O=C(Nc1ccc2sc(-c3ccccc3)nc2c1)c1nccs1` [Compound 20, N-(2-Phenylbenzo[d]thiazol-5-yl)thiazole-2-carboxamide], for which, in data set [2] (setting [5]), the half-maximal effective concentration (EC50) is 5860 nM. Besides, the 90% effect concentration (EC90) in data set [2] (setting [6]) was above 10000 nM.
For the molecule `O=C(Nc1ccc2sc(-c3ccccc3)nc2c1)c1cscn1` [Compound 21, N-(2-Phenylbenzo[d]thiazol-5-yl)thiazole-4-carboxamide], the EC50 in data set [2] (setting [5]) was above 10000 nM. Further, the EC90 in data set [2] (setting [6]) is above 10000 nM.
As to `O=C(Nc1ccc2sc(-c3cccc(F)c3)nc2c1)N1CCN(C(=O)Nc2ccc3sc(-c4cccc(F)c4)nc3c2)CC1` [Compound 31, N^1,N^4-Bis(2-(3-fluorophenyl)benzothiazol-5-yl)piperazine-1,4-dicarboxamide], the EC50 in data set [2] (setting [5]) is above 20000 nM. For the same molecule, the concentration for an effect of 90% (EC90) in data set [2] (setting [6]) is above 20000 nM.
Regarding `NC1CCN(C(=O)Nc2ccc3sc(-c4ccc(F)c(F)c4)nc3c2)C1` (stereo not shown) [Compound 37, 2-(3,4-Difluorophenyl)-5-(3-amino-N-pyrrolidylamido)benzothiazole], the concentration giving a half-maximal response (EC50) in data set [2] (setting [5]) worked out at 2320 nM. Moreover, in data set [2] (setting [6]), the EC90 turned out to be 2720 nM.
`O=C(Nc1ccn2cc(-c3ccc(F)c(F)c3)nc2c1)N1CC[C@H](F)C1` [Compound 41, (3S)-N-[2-(3,4-difluorophenyl)imidazo[1,2-a]pyridin-7-yl]-3-fluoropyrrolidine-1-carboxamide]: the EC50 in data set [3] turned out to be 390 nM; in data set [2] (setting [7]), 160 nM.
The like results for `O=C(Nc1ccn2cc(-c3ccc(F)c(F)c3)nc2c1)N1CCCC1` [Compound 42, N-[2-(3,4-difluorophenyl)imidazo[1,2-a]pyridin-7-yl]pyrrolidine-1-carboxamide] were, in that order, 2240 nM and 320 nM.
On to `O=C(Nc1ccn2cc(-c3ccc(F)c(F)c3)nc2c1)N1CCCCC1` [Compound 43, N-[2-(3,4-difluorophenyl)imidazo[1,2-a]pyridin-7-yl]piperidine-1-carboxamide], for which the values for the EC50 in data set [3] and in data set [2] (setting [7]) were 2840 nM and 1200 nM, respectively.
For `O=C(Nc1ccn2cc(-c3cccc(F)c3F)nc2c1)N1CC[C@H](F)C1` [Compound 44, (3S)-N-[2-(2,3-difluorophenyl)imidazo[1,2-a]pyridin-7-yl]-3-fluoropyrrolidine-1-carboxamide], the concentration for a half-maximal effect (EC50) in data set [3] is 940 nM; in data set [2] (setting [7]), 180 nM.
The like results for `O=C(Nc1ccn2cc(-c3cccc(F)c3F)nc2c1)N1CCCC1` [Compound 45, N-[2-(2,3-difluorophenyl)imidazo[1,2-a]pyridin-7-yl]pyrrolidine-1-carboxamide] were, in that order, 1020 nM and 580 nM.
`O=C(Nc1ccn2cc(-c3cccc(F)c3F)nc2c1)N1CCCCC1` [Compound 46, N-[2-(2,3-difluorophenyl)imidazo[1,2-a]pyridin-7-yl]piperidine-1-carboxamide]: the concentration giving a half-maximal response (EC50) in data set [3] turned out to be 1000 nM; in data set [2] (setting [7]), 720 nM.
In the case of `O=C(Nc1ccn2cc(-c3cccc(F)c3)nc2c1)N1CC[C@H](F)C1` [Compound 47, (3S)-3-fluoro-N-[2-(3-fluorophenyl)imidazo[1,2-a]pyridin-7-yl]pyrrolidine-1-carboxamide], the EC50 in data set [3] came out at 710 nM; in data set [2] (setting [7]), 160 nM.
On the same counts, the results for `O=C(Nc1ccn2cc(-c3cccc(F)c3)nc2c1)N1CCCC1` [Compound 48, N-[2-(3-fluorophenyl)imidazo[1,2-a]pyridin-7-yl]pyrrolidine-1-carboxamide] are 2950 nM and 730 nM.
The like results for `O=C(Nc1ccn2cc(-c3cccc(F)c3)nc2c1)N1CCCCC1` [Compound 49, N-[2-(3-fluorophenyl)imidazo[1,2-a]pyridin-7-yl]piperidine-1-carboxamide] were, in that order, 3100 nM and 970 nM.
For the molecule `O=C(Nc1ccn2cc(-c3ccccc3)nc2c1)N1CC[C@H](F)C1` [Compound 50, (3S)-3-fluoro-N-{2-phenylimidazo[1,2-a]pyridin-7-yl}pyrrolidine-1-carboxamide], the results for the EC50 in data set [3] and in data set [2] (setting [7]) were 1080 nM and 620 nM, respectively.
On to `O=C(Nc1ccn2cc(-c3ccccc3)nc2c1)N1CCCC1` [Compound 51, N-{2-phenylimidazo[1,2-a]pyridin-7-yl}pyrrolidine-1-carboxamide], for which the EC50 is 4460 nM in data set [3] and 2230 nM in data set [2] (setting [7]).
The like results for `O=C(Nc1ccn2cc(-c3ccccc3)nc2c1)N1CCCCC1` [Compound 52, N-{2-phenylimidazo[1,2-a]pyridin-7-yl}piperidine-1-carboxamide] were, in that order, 2750 nM and 2510 nM.
The like results for `O=C(Nc1cc2nc(-c3ccc(F)c(F)c3)cn2cn1)N1CC[C@H](F)C1` [Compound 53, (3S)-N-[2-(3,4-difluorophenyl)imidazo[1,2-c]pyrimidin-7-yl]-3-fluoropyrrolidine-1-carboxamide] were, in that order, 90 nM and 20 nM.
On to `O=C(Nc1ccc2sc(-c3ccc(F)c(F)c3)nc2c1Br)N1CC[C@H](F)C1` [Compound 55], for which, in data set [2] (setting [8]), the EC50 was above 20000 nM. Also, in data set [2] (setting [9]), the 90% effect concentration (EC90) was above 20000 nM.
Turning to `O=C(Nc1cnc2sc(-c3ccc(F)c(F)c3)nc2c1)N1CC[C@H](F)C1` [Compound 56, (S)-2-(3,4-Difluorophenyl)-5-(3-fluoro-N-pyrrolidylamido)-7-azabenzothiazole], the concentration for a half-maximal effect (EC50) in data set [2] (setting [8]) turned out to be 181 nM. The EC90 in data set [2] (setting [9]) is 364 nM.
On the same counts, the results for `O=C(Nc1ccc2sc(-c3ccc(F)c(F)c3)nc2c1)c1cnco1` [Compound 58, N-(2-(3,4-Difluorophenyl)benzo[d]thiazol-5-yl)oxazole-5-carboxamide] are above 20000 nM and above 20000 nM.
Turning to `Cc1nc(C(=O)Nc2ccc3sc(-c4ccc(F)c(F)c4)nc3c2)c(C)o1` [Compound 60], the half-maximal effective concentration (EC50) in data set [2] (setting [8]) is above 20000 nM. Further, the EC90 in data set [2] (setting [9]) is above 20000 nM.
Consider `O=C(Nc1ccc2sc(-c3ccc(F)c(F)c3)nc2c1)c1cncs1` [Compound 61], for which the EC50 in data set [2] (setting [8]) came out at 3830 nM. Further, the EC90 in data set [2] (setting [9]) was found to be 7370 nM.
Take `Cc1nc(C)c(C(=O)Nc2ccc3sc(-c4ccc(F)c(F)c4)nc3c2)s1` [Compound 62]: the 50% effective concentration (EC50) in data set [2] (setting [8]) was above 20000 nM. Moreover, in data set [2] (setting [9]), the EC90 was above 20000 nM.
With “N-(2-(3,4-Difluorophenyl)benzo[d]thiazol-5-yl)oxazole-4-carboxamide [Compound 57]”, in data set [2] (Table 17, read-out: T. b. brucei EC50), the concentration for a half-maximal effect (EC50) was above 20000 nM. Besides, in data set [2] (Table 17, read-out: T. b. brucei EC90), the 90% effect concentration (EC90) was above 20000 nM.
